≈ marks a conversion by molar mass, not a printed value. Where “and” joins values, the source holds several entries; their conditions need not be identical. Equal entries are not always repeated. Where two headings read alike, the source gives them in different places.
Assays:
[1] = system: MRC-5 normal human lung fibroblasts; assay: Cytotoxicity assay, Alamar blue, Example 2; type: cell-based; conditions: for IC50: Homo sapiens, MRC5, MRC-5, concentration which killed half of the cells
Procedure: The in vitro toxicity of the compounds (24a, 38b, 42d, 43d) was determined against MRC-5 normal human lung fibroblasts using the Alamar blue assay (see O'Brien, J.; Wilson, I.; Orton, T.; Pognan, F. Eur. J. Biochem. 2000, 267 (17), 5421-5426). A dose-response curve for each compound was generated to determine the IC50 values (concentration of compound which killed half of the cells) and the IC50 values were then used to determine the therapeutic window (IC50 value divided by MIC value) and specificity of the compounds (Table 3).

[2] = system: S. aureus (SA38); assay: Minimal inhibitory concentration (MIC) assay, Example 2; type: cell-based; conditions: Staphylococcus aureus, TSB, 37° C., 24 h
Procedure: A single colony of bacteria was cultured overnight in TSB at 37° C. The resulting bacterial culture was collected by centrifugation and re-suspended in TSB twice. The optical density (OD) of the resulting culture was adjusted to OD600=0.1 in TSB (equivalent to 10^8 colony forming unit (CFU)/mL bacteria), and was further diluted to 10^5 CFU/mL in TSB. 100 μL of the bacterial solution was then added to wells of a 96-well plate containing 100 μL serially diluted compound, with final concentration ranging from 8-250 μM. The plates were then incubated at 37° C. for 24 h and the data was recorded by measuring the OD value at 600 nm using a Wallac Victor (Perkin-Elmer) microplate reader. […] Each experiment was performed in triplicate and was repeated in two independent experiments. The results of the MIC assay are given below in Table 2.

[3] = Membrane conduction, tBLMs containing 30% POPG, Example 2; conditions: negatively charged lipid, 50 μM, preliminary study
Description: Tethered bilayer lipid membranes (tBLMs) associated with alternating current electrical impedance spectroscopy techniques were employed to determine whether the compounds (24a, 38b, 42d, 43d) are lytic to cell membranes. Sparsely tethered tBLMs containing 30% palmitoyl-oleoyl-phosphati-dylglycerol (POPG) were created using the solvent-exchange technique described by Cranfield et al. in 2015 (see Cranfield, C. G.; Bettler, T.; Cornell, B. Langmuir 2015, 31 (1), 292-298). The tBLM conduction responses of compounds (24a, 38b, 42d, 43d) were compared to that of LL-37, a cathelicidin AMP that is known to permeabilise membranes.

[4] = system: E. coli; assay: Biofilm disruption assay, established biofilms, crystal violet staining; type: cell-based; conditions: 250 μM, 24 h treatment
Procedure: (§1) Bacterial cultures were grown in TSB media for overnight at 37° C. with shaking at 150 r.p.m. Cultures were diluted (1:20) in YPD medium and 200 μl aliquots were dispensed to flat bottom 96-well plate wells (Sarstedt Australia). Cultures were supplemented with varying concentrations of synthetic compounds dissolved in water. For pre-established biofilm assay, cultures were grown in 96-well plate wells overnight prior to supplementation with synthetic compounds. Control cultures were supplemented with an equal amount of DMSO. Plates were sealed with self-adhesive microplate sealers (TopSeal-A, PerkinElmer) to allow air diffusion and to prevent condensation. Cultures were incubated overnight at 37° C. with shaking at 150 r.p.m. Biofilms adhered on polystyrene substratum were quantified by crystal violet staining as described previously (see Wiegand, I.; Hilpert, K.; Hancock, R. E. W. Nat. Protocols 2008, 3 (2), 163-175). All cultures were prepared in triplicates. Error bars represent the standard error of three independent experiments (n=3).
(§2) The biofilm disruption activities of the compounds were investigated using crystal violet staining according to a previously published protocol (G. A. O'Toole, J Vis Exp, 2011, (47), pii: 2437, DOI: 10.3791/2437, 2437). The ability of compounds (34-38, 51-56, 61, 62, 65 and 66) to disrupt the established biofilms of the Gram-positive bacteria S. aureus and the Gram-negative bacteria Pseudomonas aeruginosa, Serratia marcescens and E. coli, was determined at a concentration of 250 μM. In this assay, bacterial cultures were grown on a polystyrene substratum overnight prior to treatment with the compounds. In addition, the ability of these compounds to inhibit the formation of biofilms of P. aeruginosa and S. marcescens was also investigated at 250 μM, whereby the bacterial cultures were grown in the presence of test compounds.

[5] = system: S. aureus; assay: Minimal inhibitory concentration (MIC) determination, Example 1; type: cell-based; conditions: Staphylococcus aureus
Procedure: (§3) The antibacterial activity of the compounds was determined by the determination of minimal inhibitory concentration (MIC) by following the previously published protocol (see Nizalapur, S.; Ho, K. K.; Kimyon, Ö.; Yee, E.; Berry, T.; Manefield, M.; Cranfield, C. G.; Willcox, M.; Black, D. S.; Kumar, N. Org. Biomol. Chem. 2016, 14, 3623). The compounds to be tested were dissolved and diluted in autoclaved Millipore water. A single colony of bacteria was cultured overnight in TSB at 37° C. The resulting bacteria were collected by centrifugation and re-suspended in the same volume of MHB twice. Optical density (OD) of the resulting culture was adjusted to 0.1 at 600 nm (10^8 CFU/mL) in MHB, and the adjusted culture was further diluted to […] in MHB. Then, 100 μL of the bacterial solution was added to wells of a 96-well plate containing 100 μL of serially diluted compound. Two controls were also prepared: one containing 100 μL of MHB media and 100 μL sterile water, and the other containing 100 μL of bacterial solution and 100 μL sterile water. […] The MIC value was determined as the lowest concentration of compound that inhibited the complete growth of the bacteria (i.e. OD similar to that of the control having no bacteria). Each experiment was performed in triplicate and was repeated in three independent experiments.
(§4) The results of the MIC assay are given below in Table 1.

[6] = system: E. coli; assay: as above; type: cell-based; conditions: 24 h, MHB, 37° C.; for MIC: Escherichia coli, read-out: Minimum inhibitory concentration (MIC) E. coli
Procedure: as §3, §4

[7] = system: S. marcescens; assay: Biofilm disruption assay, established biofilms, crystal violet staining; type: cell-based, Serratia marcescens; conditions: 250 μM, 24 h treatment
Procedure: as §1, §2

[8] = system: MRC-5 normal human lung fibroblasts; assay: Toxicity assay, Alamar blue, Example 1; type: cell-based; conditions: for IC50: Homo sapiens, MRC5, 72 h incubation, read-out: toxicity (IC50) against MRC-5 human fibroblast cells
Procedure: The normal human lung fibroblasts MRC-5 were cultured in minimal essential medium (MEM, Invitrogen) supplemented with 10% foetal calf serum (FCS), 1% L-glutamine-penicillin-streptomycin, 2% sodium bicarbonate, 1% non-essential amino acids (NEAA) and 1% sodium pyruvate. The cell line was maintained at 37° C. in 5% CO2 as an adherent monolayer and was passaged upon reaching confluence by standard cell culture techniques. MRC-5 cells were seeded at 2×10^4 cells per well in 96-well plates to ensure full confluence (quiescence). Cells were treated 24 h after seeding with 0.1 to 1000 μM of compounds. After 72 h drug incubation, the treated media was replaced with fresh media containing 10% Alamar blue and the cells were incubated for another 6 h. The metabolic activity was detected by spectrophotometric analysis by assessing the absorbance of Alamar blue as previously described by Pasquier et. al (see Pasquier, E.; Ciccolini, J.; Carre, M.; Giacometti, S.; Fanciullino, R.; Pouchy, C.; Montero, M.-P.; Serdjebi, C.; Kavallaris, M.; André, N. Oncotarget 2011, 2, 797).
Cell proliferation was determined and expressed as a percentage of untreated control cells. The determination of IC50 values was performed using GraphPad Prism 6 (San Diego, Calif., USA).
To further evaluate the utility of these novel guanylated peptidomimetics for medical applications, it was essential to determine their specificity towards bacterial cells over mammalian cells.

[9] = system: S. marcescens; assay: Biofilm inhibition assay (inhibition of biofilm formation), crystal violet staining; type: cell-based; conditions: Serratia marcescens, 24 h
Procedure: as §1, with “no-established” for “pre-established”, “along” for “prior to supplementation”, “water.” for “DMSO.”
as §2

[10] = system: S. aureus; assay: Biofilm disruption assay, established biofilms, crystal violet staining; type: cell-based; conditions: 250 μM, 24 h treatment
Procedure: as §1, §2

[11] = system: Pseudomonas aeruginosa (PAO1); assay: as above; type: cell-based; conditions: 250 μM, 24 h treatment
Procedure: as §1, §2

[12] = MHB, 37° C., 24 h, read-out: Minimum inhibitory concentration (MIC) S. aureus
[13] = MIC in μM as compared with MRC-5 IC50, read-out: equivalent MIC values

With `CCCCCCCCS(=O)(=O)Nc1ccc(Br)cc1C(=O)C(=O)NCCCN(C)C` [Compound 24a, 2-(5-Bromo-2-(octylsulfonamido)phenyl)-N-(3-(dimethylamino)propyl)-2-oxoacetamide] the IC50 [1] was 37.4 µM, the “toxicity to human cells” value ([1]; MRC-5) was “high level of toxicity to human cells” and the MIC [2] was 47 µM (≈ 23.7 µg/mL). The tBLM conduction response [3] was “showed conduction responses”.

For `Cl.N=C(N)NCCCNC(=O)C(=O)c1cc(Br)ccc1NC(=O)c1ccc2ccccc2c1` [Compound 35, N-(4-Bromo-2-(2-((3-guanidinopropyl)amino)-2-oxoacetyl)phenyl)-2-naphthamide hydrochloride], the “disruption of established biofilms of E. coli” value [4] was 46%, the MIC [5, 12] was 6 µg/mL and the MIC [5, 13] was 12.5 µM. The MIC [6] was greater than 110 µg/mL, the “disruption of established biofilms of S. marcescens” value [7] was 49% and the IC50 [8] was 174 µM.

In the case of `Cl.N=C(N)NCCCNC(=O)C(=O)c1cc(Cl)ccc1NC(=O)c1ccc2ccccc2c1` [Compound 36, N-(4-Chloro-2-(2-((3-guanidinopropyl)amino)-2-oxoacetyl)phenyl)-2-naphthamide hydrochloride], the “disruption of established biofilms of E. coli” value [4] is reported as 43%, the inhibition at 250 µM [9] is reported as 71% and the MIC [5, 12] is reported as 8 µg/mL. The MIC [5, 13] was 16 µM, the MIC [6] was greater than 110 µg/mL and the IC50 [8] was 224 µM.

For `CCCCCCCCS(=O)(=O)Nc1ccc(Br)cc1C(=O)C(=O)NCCN(C)C.Cl` [Compound 38b, 2-(2-(5-Bromo-2-(octylsulfonamido)phenyl)-2-oxoacetamido)-N,N-dimethylethan-1-aminium chloride], the IC50 [1] was 75.5 µM, the MIC [2] was 63 µM and the tBLM conduction response [3] was “showed conduction responses”.

With `CCCCCCCCS(=O)(=O)Nc1ccccc1C(=O)C(=O)NCCCNC(=N)N.Cl` [Compound 42d, N-(3-Guanidinopropyl)-2-(2-(octylsulfonamido)phenyl)-2-oxoacetamide hydrochloride] the IC50 [1] was 373 µM, the MIC [2] was 47 µM and the tBLM conduction response [3] was “showed conduction responses”.

In the case of `CCCCCCCCS(=O)(=O)Nc1ccc(Br)cc1C(=O)C(=O)NCCCNC(=N)N.Cl` [Compound 43d, 2-(5-Bromo-2-(octylsulfonamido)phenyl)-N-(3-guanidinopropyl)-2-oxoacetamide hydrochloride], the IC50 [1] is reported as 178 µM, the MIC [2] is reported as 12 µM and the tBLM conduction response [3] is reported as “showed conduction responses”.

In the case of `Cl.N=C(N)NCCCC[C@H](NC(=O)C(=O)c1cc(F)ccc1NC(=O)c1ccc2ccccc2c1)C(=O)O` [Compound 53, N^2-(2-(2-(2-naphthamido)-5-fluorophenyl)-2-oxoacetyl)-N^6-carbamimidoyllysine hydrochloride], the “disruption of established biofilms of S. aureus” value [10] is reported as 46%, the “disruption of established biofilms of P. aeruginosa” value [11] is reported as 42% and the inhibition at 250 µM [9] is reported as 67%. For the same compound, the MIC [5, 12] was 108 µg/mL, the MIC [6] was 67 µg/mL and the “Minimum inhibitory concentration (MIC) E. coli” value ([6]; hydrochloride) was 68 µg/mL. The “disruption of established biofilms of S. marcescens” value [7] was 40%.

In the case of `COC(=O)[C@H](CCCNC(=N)N)NC(=O)[C@H](CCCNC(=N)N)NC(=O)C(=O)c1cc(Br)ccc1NC(=O)c1ccc2ccccc2c1.Cl.Cl` [Compound 66, Methyl (2-(2-(2-naphthamido)-5-bromophenyl)-2-oxoacetyl)arginylargininate dihydrochloride], the “disruption of established biofilms of P. aeruginosa” value ([11]; dihydrochloride) is reported as 54% and 55%, the inhibition at 250 µM [9] is reported as 69% and the MIC [5, 12] is reported as 10 µg/mL. For the same compound, the MIC [5, 13] was 15.7 µM, the MIC [6] was 50 µg/mL and the “toxicity (IC50) against MRC-5 human fibroblast cells” value ([8]; 72 h incubation) was “not reaching a 50% reduction of cell viability at the highest tested dose”.

Source: patent publication US10988444B2, “Antimicrobial compounds” (NEWSOUTH INNOVATIONS PTY LIMITED, priority 2016, dated 2021)
